Patent publication US6036958A, “Tsetse thrombin inhibitor” (Yale University, priority 1999, dated 2000)
No end group written: not given here.

B1: recombinant antistasin: from the leech Haementaria officinalis, potent and specific inhibitor of factor Xa (protein, UniProt P15358 18-136, looked up)
Antistasin: QGPFGPGCEEAGCPEGSACNIITDRCTCSGVRCRMHCPHGFQRSRYGCEFCKCRLEPMKATCDISECPEGMMCSRLTNKCDCKIDINCRKTCPNGLKRDKLGCEYCECRPKRKLIPRLS

Columns and labels:
[1] = test system: restenosis following angioplasty; settings: rabbits; cited from earlier work
[2] = test system: ADP induced platelet aggregation; assay: Platelet aggregation assay, ADP induced; format: cell-based, human; settings: purified TTI
Procedure: (§1) Platelet Aggregation Assay. Blood from a healthy human volunteer was collected by venipuncture, anticoagulated with 1/10 volume of 0.08 M trisodium citrate, and centrifuged at 150 g for 10 min. The platelet rich plasma (PRP) was withdrawn and acidified to pH 6.4 using 0.15 M citric acid^15. The PRP was then centrifuged at 370 g for 20 min and the supernatant discarded. The platelet pellet was resuspended in Tyrodes solution (pH 7.4) with 3.13% wt/vol trisodium citrate and counted in a Coulter counter (Coulter Electronics, Hialeah, Fla.). The concentration of platelets was adjusted to 3×10^4 /μl prior to use.

[3] = test system: collagen induced platelet aggregation; assay: Platelet aggregation assay, collagen induced; format: cell-based, human; settings: purified TTI
Procedure: as §1

[4] = test system: thrombin induced platelet aggregation; assay: Platelet aggregation assay, thrombin induced; format: cell-based; settings: washed human platelets; TTI 0, 0.001, 0.5, 1.0 nM; thrombin 0.2 NIH U/ml
Procedure: as §1
To determine the effect of TTI on thrombin induced aggregation, 200 μl of washed platelets were warmed to 37° C. in a Born multi-channel aggregometer in the presence of increasing concentrations of purified TTI. Aggregation was then recorded following the addition of 20 μl of thrombin (Boehringer-Mannheim, Indianapolis, Ind.) at a final concentration of 0.2 NIH U/ml. The aggregometer was calibrated to 100% light transmission, ie 0% aggregation, using Tyrodes solution.

thrombin = thrombin (Homo sapiens, UniProt P00734); assay: Single stage chromogenic assay of thrombin inhibition (S-2238); format: biochemical; settings: purified protein
Procedure: Thrombin Assays. A single stage chromogenic assay of thrombin inhibition was used to monitor SGE activity. 100 μl of thrombin, diluted to a concentration of 1 nM in 10 mM HEPES, pH 7.5 containing 0.1% bovine serum albumin and 150 mM NaCl (HBSA), was incubated with 50 µl of SGE, column fractions (diluted 1:1000 in HBSA), or purified TTI for 15 min at 25° C. in a 96 well microtiter plate. Following the addition of […], the initial rate (mOD/min) of substrate hydrolysis over 5 min was measured at 405 nm using a Vmax kinetic microplate reader (Molecular Devices, Palo Alto, Calif.). Results were expressed as percent inhibition of thrombin activity using the following formula:
Percent inhibition=1--(inhibited rate/uninhibited rate)×100

| Molecule | reducing restenosis following angioplasty, compared with heparin [1] | effect on ADP induced aggregation [2] | effect on collagen induced aggregation [3] | inhibition of platelet aggregation in response to thrombin [4] | inhibitory activity against thrombin (thrombin) |
| --- | --- | --- | --- | --- | --- |
| tick anticoagulant peptide: from Ornithodoros moubata, potent and specific inhibitor of factor Xa (YNRLCIKPRDWIDECDSNEGGERAYFRNGKGGCDSFWICPEDHTGADYYSSYRDCFNACI; ends and bridges not checked; cysteine pairing not given here; UniProt P17726 1-60, looked up) [reference compound] | superior to heparin |  |  |  |  |
| TTI: low molecular weight polypeptide (about 3530 Da) purified from Glossina morsitans morsitans salivary glands; residues 19 to 50 of SEQ ID NO: 2 (GEPGAPIDYDEYGDSSEEVGGTPLHEIPGIRL) |  | no effect | no effect | dose dependent inhibition of platelet aggregation | potent, tight-binding inhibitor of thrombin |
| B1 | superior to heparin |  |  |  |  |
